Experimental data reported in ChEMBL document CHEMBL3714729, “Heterocyclic compounds for the inhibition of pask” (2012).

Experiments:
[1] = target: T1, PAS domain-containing serine/threonine-protein kinase (Homo sapiens, UniProt Q96RG2); experiment: Inhibition of human recombinant PASK using Ulight-peptide substrate incubated for 2 hrs by TR-FRET assay
[2] = target: T1, PAS domain-containing serine/threonine-protein kinase; experiment: Inhibition of N-terminal GST-tagged human recombinant PASK kinase domain (879 to 1323 residues) expressed in insect cells using MBP protein substrate incubated for 120 mins in presence of [33P]ATP by scintillation counting based radiochemical assay
[3] = target: Casein kinase II subunit alpha' (Homo sapiens, UniProt P19784); experiment: Inhibition of GST-tagged full-length purified human CK2a2 using RRRDDDSDDD substrate incubated for 120 mins in presence of [33P]ATP by scintillation counting based biochemical assay
Casein kinase II subunit alpha', sequence (P19784 whole entry): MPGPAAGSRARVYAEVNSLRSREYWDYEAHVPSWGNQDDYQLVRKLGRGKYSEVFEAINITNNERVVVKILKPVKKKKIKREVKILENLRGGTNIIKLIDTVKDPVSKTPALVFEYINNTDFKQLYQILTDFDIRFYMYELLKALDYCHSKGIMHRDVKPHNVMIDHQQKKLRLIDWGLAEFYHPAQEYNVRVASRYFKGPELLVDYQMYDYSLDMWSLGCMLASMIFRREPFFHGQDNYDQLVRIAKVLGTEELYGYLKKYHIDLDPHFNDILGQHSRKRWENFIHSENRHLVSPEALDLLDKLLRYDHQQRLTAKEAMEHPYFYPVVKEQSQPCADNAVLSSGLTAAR

T1 sequence (Q96RG2 whole entry, the tested form may be a part): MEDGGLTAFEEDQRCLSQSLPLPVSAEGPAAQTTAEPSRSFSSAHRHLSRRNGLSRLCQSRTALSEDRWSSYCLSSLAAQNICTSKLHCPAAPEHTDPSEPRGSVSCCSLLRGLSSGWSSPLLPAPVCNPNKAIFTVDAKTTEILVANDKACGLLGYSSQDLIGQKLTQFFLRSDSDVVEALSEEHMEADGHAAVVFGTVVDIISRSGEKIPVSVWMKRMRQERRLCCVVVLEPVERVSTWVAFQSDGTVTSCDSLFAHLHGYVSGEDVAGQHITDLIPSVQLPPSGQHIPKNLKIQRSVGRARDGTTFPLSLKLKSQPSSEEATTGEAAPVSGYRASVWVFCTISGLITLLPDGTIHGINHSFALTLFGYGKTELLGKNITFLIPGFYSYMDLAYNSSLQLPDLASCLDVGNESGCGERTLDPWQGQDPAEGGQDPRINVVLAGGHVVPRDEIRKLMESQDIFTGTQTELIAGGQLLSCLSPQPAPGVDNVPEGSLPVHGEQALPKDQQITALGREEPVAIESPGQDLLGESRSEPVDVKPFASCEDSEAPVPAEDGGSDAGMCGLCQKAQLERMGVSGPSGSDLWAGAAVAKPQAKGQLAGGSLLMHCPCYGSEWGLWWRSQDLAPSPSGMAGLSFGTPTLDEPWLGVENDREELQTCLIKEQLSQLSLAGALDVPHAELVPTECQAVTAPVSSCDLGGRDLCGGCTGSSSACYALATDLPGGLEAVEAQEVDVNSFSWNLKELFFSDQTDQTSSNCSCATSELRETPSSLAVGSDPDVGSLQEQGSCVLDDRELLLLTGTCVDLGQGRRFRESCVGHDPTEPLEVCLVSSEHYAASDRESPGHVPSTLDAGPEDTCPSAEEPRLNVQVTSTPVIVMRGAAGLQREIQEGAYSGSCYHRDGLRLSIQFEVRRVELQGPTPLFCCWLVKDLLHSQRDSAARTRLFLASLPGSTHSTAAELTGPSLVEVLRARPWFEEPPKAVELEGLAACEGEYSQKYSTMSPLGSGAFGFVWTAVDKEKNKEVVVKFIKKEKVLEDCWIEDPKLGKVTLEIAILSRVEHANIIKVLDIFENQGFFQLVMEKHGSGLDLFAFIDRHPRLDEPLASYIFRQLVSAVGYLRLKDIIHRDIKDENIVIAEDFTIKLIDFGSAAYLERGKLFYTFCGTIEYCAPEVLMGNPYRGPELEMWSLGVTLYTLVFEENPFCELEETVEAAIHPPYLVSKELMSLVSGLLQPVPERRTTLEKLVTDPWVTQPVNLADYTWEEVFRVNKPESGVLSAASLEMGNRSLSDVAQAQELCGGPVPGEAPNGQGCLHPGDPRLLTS

Row | Compound | IC50 [1] | IC50 [2] | IC50 [3]
1 | Cc1nn2c(=O)cc(-c3ccc4c(c3)OCCO4)[nH]c2c1-c1ccccn1 | – | – | ≤ 10 µM
2 | O=c1cc(-c2ccccn2)[nH]c2c(-c3ccc(F)cc3)cnn12 | – | ≤ 10 µM | ≤ 10 µM
3 | CNC(=O)Oc1ccc(-c2cc(=O)n3nc(C)c(-c4ccccn4)c3[nH]2)cc1 | ≤ 10 µM | – | –
4 | O=c1cc(-c2ccc3c(c2)OCCO3)[nH]c2c(-c3cccnc3)cnn12 | – | – | ≤ 10 µM
5 | COc1ccc(-c2cc(=O)n3nc(C)c(Cc4ccccc4)c3[nH]2)cc1OC | – | – | ≥ 10 µM
6 | CNC(=O)Oc1ccc(-c2cc(=O)n3ncc(-c4ccccn4)c3[nH]2)cc1 | ≤ 10 µM | – | –
7 | COc1cccc(-c2cc(=O)n3nc(C)c(Cc4ccc(Cl)cc4)c3[nH]2)c1 | – | – | ≥ 10 µM
8 | Cc1nn2c(=O)cc(-c3cccnc3)[nH]c2c1-c1ccc(F)cc1 | – | ≤ 10 µM | ≤ 10 µM
9 | COc1ccc(-c2cc(=O)n3ncc(-c4ccccn4)c3[nH]2)cc1 | – | – | ≤ 10 µM
10 | O=c1cc(-c2ccc3c(c2)OCCO3)[nH]c2c(-c3ccccc3)cnn12 | – | – | ≤ 10 µM
11 | O=c1cc(-c2ccc3c(c2)OCO3)[nH]c2c(-c3ccccn3)cnn12 | – | – | ≤ 10 µM
12 | O=c1cc(-c2ccc3c(c2)OCO3)[nH]c2c(Cc3ccccn3)cnn12 | ≤ 10 µM | – | –
13 | Nc1nn2c(=O)cc(-c3ccc4[nH]nnc4c3)[nH]c2c1Cc1ccccc1 | ≤ 10 µM | – | –
14 | CC(C)Oc1c(-c2cc(=O)n3ncc(-c4ccccn4)c3[nH]2)ccc2c1OCO2 | ≤ 10 µM | – | –
15 | Cc1cc2[nH]nnc2cc1-c1cc(=O)n2nc(O)c(-c3ccccn3)c2[nH]1 | ≤ 10 µM | – | –
16 | Cc1nn2c(=O)cc(-c3ccccc3)[nH]c2c1Cc1ccc(Cl)cc1 | – | – | ≤ 10 µM
17 | O=c1cc(-c2ccc3c(c2)OCCO3)[nH]c2c(-c3ccccn3)c(O)nn12 | ≤ 10 µM | ≤ 10 µM | –
18 | COc1ccc(-c2cc(=O)n3ncc(-c4ccc(F)cc4)c3[nH]2)cc1 | – | – | ≤ 10 µM
19 | Cc1nn2c(=O)cc(-c3ccc4cc[nH]c4c3)[nH]c2c1Cc1ccccc1 | – | – | ≥ 10 µM
20 | COc1ccc(-c2cc(=O)n3ncc(-c4ccccn4)c3[nH]2)c(OC)c1 | ≤ 10 µM | ≤ 10 µM | –
21 | Cc1nn2c(=O)cc(-c3ccc(OC(C)C)cc3)[nH]c2c1Cc1ccc(Cl)cc1 | – | – | ≥ 10 µM
22 | Cc1nn2c(=O)cc(-c3ccc(C(F)(F)F)cc3)[nH]c2c1Cc1ccc(Cl)cc1 | – | – | ≥ 10 µM
23 | Cc1nn2c(=O)cc(-c3ccc4c(c3)CCO4)[nH]c2c1-c1ccccc1 | – | – | ≤ 10 µM
24 | Cc1nn2c(=O)cc(-c3ccc4c(c3)OCCO4)[nH]c2c1-c1cccnc1 | – | – | ≤ 10 µM
25 | Cc1nn2c(=O)cc(-c3ccc4c(c3)OCO4)[nH]c2c1-c1ccccc1 | – | – | ≤ 10 µM
26 | O=c1cc(-c2ccc3c(c2)OCCO3)[nH]c2c(-c3ccccn3)cnn12 | – | – | ≤ 10 µM
27 | Cn1ncc2cc(-c3cc(=O)n4nc(N)c(-c5ccccn5)c4[nH]3)ccc21 | ≤ 10 µM | – | –

Row | Compound | IC50 [1] | IC50 [2] | IC50 [3]
28 | Cc1nn2c(=O)cc(-c3ccc4c(c3)OCO4)[nH]c2c1Cc1cccc(Cl)c1 | ≤ 10 µM | ≤ 10 µM | ≤ 10 µM
29 | O=c1cc(-c2ccc(Cl)cc2)[nH]c2c(-c3ccccn3)cnn12 | ≤ 10 µM | ≤ 10 µM | –
30 | Cc1nn2c(=O)cc(-c3ccc4c(c3C)OCO4)[nH]c2c1-c1ccccn1 | ≤ 10 µM | – | –
31 | COc1ccc(-c2cc(=O)n3nc(C)c(Cc4ccc(Cl)cc4)c3[nH]2)cc1OC | – | – | ≥ 10 µM
32 | O=C(c1cnn2c(=O)cc(-c3ccc4c(c3)OCCO4)[nH]c12)N1CCOCC1 | ≤ 10 µM | ≤ 10 µM | –
33 | COc1c(-c2cc(=O)n3ncc(-c4ccccn4)c3[nH]2)ccc2c1OCO2 | ≤ 10 µM | – | –
34 | Cn1nnc2cc(-c3cc(=O)n4nc(N)c(-c5ccccn5)c4[nH]3)ccc21 | ≤ 10 µM | – | –
35 | COC(=O)c1ccc(-c2cc(=O)n3nc(C)c(Cc4ccc(Cl)cc4)c3[nH]2)cc1 | – | – | ≥ 10 µM
36 | COc1c(-c2cc(=O)n3nc(N)c(-c4ccccn4)c3[nH]2)ccc2[nH]nnc12 | ≤ 10 µM | – | –
37 | Cc1nn2c(=O)cc(-c3ccc4[nH]nnc4c3C)[nH]c2c1-c1ccccn1 | ≤ 10 µM | – | –
38 | COc1ccc(-c2cc(=O)n3nc(C)c(Cc4ccccc4Cl)c3[nH]2)cc1 | ≤ 10 µM | – | ≥ 10 µM
39 | CC(=O)Nc1nn2c(=O)cc(-c3ccc4[nH]nnc4c3)[nH]c2c1-c1ccccn1 | ≤ 10 µM | – | –
40 | Cc1nn2c(=O)cc(-c3ccc4c(c3)OCO4)[nH]c2c1Cc1ccc(Cl)cc1 | ≤ 10 µM | ≤ 10 µM | ≤ 10 µM
41 | CCc1nn2c(=O)cc(-c3ccc4[nH]ncc4c3)[nH]c2c1-c1ccccn1 | ≤ 10 µM | – | –
42 | O=c1cc(-c2ccc3[nH]nnc3c2)[nH]c2c(Cc3ccccc3)cnn12 | ≤ 10 µM | – | –
43 | CCCNC(=O)c1c(O)nn2c(=O)cc(-c3ccc4[nH]nnc4c3)[nH]c12 | ≤ 10 µM | – | –
44 | Cc1nn2c(=O)cc(-c3ccc4c(c3)OCO4)[nH]c2c1-c1ccccn1 | – | – | ≤ 10 µM
45 | Cc1nn2c(=O)cc(-c3ccc(C(N)=O)cc3)[nH]c2c1Cc1ccc(Cl)cc1 | – | – | ≥ 10 µM
46 | COc1ccc(-c2cc(=O)n3ncc(-c4cccnc4)c3[nH]2)cc1 | ≤ 10 µM | ≤ 10 µM | ≤ 10 µM
47 | CCCNC(=O)c1c(N)nn2c(=O)cc(-c3ccc4c(c3)OCCO4)[nH]c12 | ≤ 10 µM | – | –
48 | O=c1cc(-c2ccc(-c3nnco3)cc2)[nH]c2c(-c3ccccn3)cnn12 | ≤ 10 µM | – | –
49 | Cc1c(-c2cc(=O)n3ncc(-c4ccccn4)c3[nH]2)ccc2c1OCO2 | ≤ 10 µM | – | –
50 | CC(=O)Nc1nn2c(=O)cc(-c3ccc4[nH]ncc4c3)[nH]c2c1-c1ccccn1 | ≤ 10 µM | – | –
51 | Cc1n[nH]c2ccc(-c3cc(=O)n4ncc(-c5ccccn5)c4[nH]3)cc12 | ≤ 10 µM | – | –
52 | CC(C)C(=O)Nc1nn2c(=O)cc(-c3ccc4c(c3)OCO4)[nH]c2c1-c1ccccn1 | ≤ 10 µM | – | –
53 | Cc1nn2c(=O)cc(-c3ccccc3)[nH]c2c1Cc1ccccc1 | – | – | ≥ 10 µM
54 | Cn1nnc2cc(-c3cc(=O)n4ncc(-c5ccccn5)c4[nH]3)ccc21 | ≤ 10 µM | – | –

Further lines, results first:

Row | IC50 [1] | IC50 [2] | IC50 [3] | Compound
55 | ≤ 10 µM | – | – | COc1cc2[nH]nnc2cc1-c1cc(=O)n2nc(O)c(-c3ccccn3)c2[nH]1
56 | ≤ 10 µM | ≤ 10 µM | – | O=c1cc(-c2ccc3c(c2)OCCO3)[nH]c2c(-c3ccccc3)c(O)nn12
57 | ≤ 10 µM | – | – | CCC(=O)Nc1nn2c(=O)cc(-c3ccc4c(c3)OCO4)[nH]c2c1-c1ccccn1
58 | ≤ 10 µM | – | – | COc1c(-c2cc(=O)n3nc(O)c(-c4ccccn4)c3[nH]2)ccc2[nH]nnc12
59 | ≤ 10 µM | – | – | O=c1cc(-c2ccc3[nH]nnc3c2)[nH]c2c(-c3ccccc3)c(O)nn12
60 | ≤ 10 µM | – | – | Cc1nn2c(=O)cc(-c3ccc4[nH]nnc4c3)[nH]c2c1-c1ccccn1
61 | ≤ 10 µM | – | – | CCc1nn2c(=O)cc(-c3ccc(Cl)cc3)[nH]c2c1-c1ccccn1
62 | ≤ 10 µM | ≤ 10 µM | ≤ 10 µM | O=c1cc(-c2ccc3cc[nH]c3c2)[nH]c2c(-c3ccccc3)cnn12
63 | ≤ 10 µM | – | – | Cc1n[nH]c2ccc(-c3cc(=O)n4nc(N)c(-c5ccccn5)c4[nH]3)cc12
64 | ≤ 10 µM | ≤ 10 µM | ≤ 10 µM | Cc1nn2c(=O)cc(-c3ccc4ncccc4c3)[nH]c2c1Cc1ccccc1
65 | ≤ 10 µM | ≤ 10 µM | ≤ 10 µM | O=c1cc(-c2cc3ccccc3o2)[nH]c2c(-c3ccccn3)cnn12
66 | ≤ 10 µM | – | – | O=c1cc(-c2ccc3[nH]nnc3c2)[nH]c2c(Cc3ccccc3)c(O)nn12
67 | ≤ 10 µM | – | – | Cc1nn2c(=O)cc(-c3ccc4c(c3OC(C)C)OCO4)[nH]c2c1-c1ccccn1
68 | ≤ 10 µM | – | – | Cc1c(-c2cc(=O)n3nc(O)c(-c4ccccn4)c3[nH]2)ccc2c1OCO2
69 | ≤ 10 µM | – | – | CCc1nn2c(=O)cc(-c3ccc4c(cnn4C)c3)[nH]c2c1-c1ccccn1
70 | ≤ 10 µM | – | – | CCc1nn2c(=O)cc(-c3ccc4[nH]nnc4c3)[nH]c2c1-c1ccccc1
71 | ≤ 10 µM | ≤ 10 µM | ≤ 10 µM | COc1cccc(-c2cnn3c(=O)cc(-c4ccc5c(c4)OCCO5)[nH]c23)c1
72 | ≤ 10 µM | – | – | Cn1ncc2cc(-c3cc(=O)n4ncc(-c5ccccn5)c4[nH]3)ccc21
73 | ≤ 10 µM | – | – | COc1c(-c2cc(=O)n3nc(C)c(-c4ccccn4)c3[nH]2)ccc2[nH]nnc12

Row | IC50 [1] | IC50 [2] | IC50 [3] | Compound
74 | ≤ 10 µM | – | – | CCn1ncc2cc(-c3cc(=O)n4nc(NC(C)=O)c(-c5ccccn5)c4[nH]3)ccc21
75 | ≤ 10 µM | – | – | Cc1c(-c2cc(=O)n3nc(N)c(-c4ccccn4)c3[nH]2)ccc2[nH]nnc12
76 | ≤ 10 µM | ≤ 10 µM | ≤ 10 µM | Cc1nn2c(=O)cc(-c3ccc4c(c3)OCCO4)[nH]c2c1-c1ccc(F)cc1
77 | ≤ 10 µM | – | – | O=c1cc(-c2ccc3[nH]nnc3c2)[nH]c2c(-c3ccccn3)cnn12
78 | ≤ 10 µM | – | – | CCC(=O)Nc1nn2c(=O)cc(-c3ccc4nn[nH]c4c3)[nH]c2c1-c1ccccn1
79 | ≤ 10 µM | – | ≤ 10 µM | O=c1cc(-c2ccc3c(c2)OCCO3)[nH]c2c(-c3cccc(F)c3)cnn12
80 | ≤ 10 µM | – | ≤ 10 µM | O=c1cc(-c2ccc3c(c2)OCCO3)[nH]c2c(-c3ccc(N4CCCCC4)nc3)cnn12
81 | ≤ 10 µM | – | – | Cc1c(-c2cc(=O)n3nc(O)c(-c4ccccn4)c3[nH]2)ccc2[nH]nnc12
82 | ≤ 10 µM | – | – | Cc1nn2c(=O)cc(-c3ccc4[nH]nnc4c3)[nH]c2c1Cc1ccccc1
83 | ≤ 10 µM | – | – | Cc1cc2[nH]nnc2cc1-c1cc(=O)n2ncc(-c3ccccn3)c2[nH]1
84 | ≤ 10 µM | ≤ 10 µM | ≥ 10 µM | CCCc1c(C)nn2c(=O)cc(-c3ccc(OC)cc3)[nH]c12
85 | ≤ 10 µM | ≤ 10 µM | – | O=C(NCc1ccccc1)c1cnn2c(=O)cc(-c3ccc4c(c3)OCCO4)[nH]c12
86 | ≤ 10 µM | ≤ 10 µM | ≤ 10 µM | O=c1cc(-c2ccc3c(c2)CCO3)[nH]c2c(-c3ccccn3)cnn12
87 | ≤ 10 µM | ≤ 10 µM | – | CN1CCN(C(=O)c2cnn3c(=O)cc(-c4ccc5c(c4)OCCO5)[nH]c23)CC1
88 | ≤ 10 µM | – | – | Cc1nn2c(=O)cc(-c3ccc4[nH]nnc4c3)[nH]c2c1-c1ccc(Cl)cc1
89 | ≤ 10 µM | – | – | Cc1nn2c(=O)cc(-c3ccc4[nH]nnc4c3)[nH]c2c1-c1ccccc1
90 | ≤ 10 µM | – | – | Cc1cc2[nH]nnc2cc1-c1cc(=O)n2nc(N)c(-c3ccccn3)c2[nH]1
91 | ≤ 10 µM | – | – | Cc1c(-c2cc(=O)n3nc(N)c(-c4ccccn4)c3[nH]2)ccc2c1OCO2
